Patent publication US7132540B1, “Hindered spiro-ketal nitroxides” (Nova Molecular Technologies Inc., priority 2001, dated 2006)

Columns and labels:
[1] = Polymerization of acrylonitrile at 70° C. with benzoyl peroxide in the presence of nitroxide inhibitors; details: acrylonitrile 10 ml, benzoyl peroxide 0.35 g, inhibitor 0.1 g (0.1 ml for 6), water bath 70° C.
Method: (§1) Testing was done to determine the effectiveness of various nitroxides in inhibiting the polymerization of various vinyl monomers.
(§2) A sample of vinyl monomer (10 ml) was placed in an open 25 ml test tube. To each tube benzoyl peroxide (0.35 g) and 0.1 g of nitroxide inhibitor was added, then the tubes were placed in a water bath maintained by a thermostat at 70° C. The selected vinyl monomers polymerize under these conditions without nitroxide inhibitors within a few minutes.
(§3) Vinyl monomers: acrylonitrile, vinyl acetate and methyl acrylate.
Polymerization of Acrylonitrile at 70° C. in the presence of Nitroxide Inhibitors.

[2] = Polymerization of vinyl acetate at 70° C. with benzoyl peroxide in the presence of nitroxide inhibitors; details: vinyl acetate 10 ml, benzoyl peroxide 0.35 g, inhibitor 0.1 g (0.1 ml for 6), water bath 70° C.
Method: as §1, §2, §3
Polymerization of Vinyl Acetate at 70° C. in the presence of Nitroxide Inhibitors.

[3] = Polymerization of methyl acrylate at 70° C. with benzoyl peroxide in the presence of nitroxide inhibitors; details: methyl acrylate 10 ml, benzoyl peroxide 0.35 g, inhibitor 0.1 g (0.1 ml for 6), water bath 70° C.
Method: as §1, §2, §3
Polymerization of Methyl Acrylate at 70° C. in the presence of Nitroxide Inhibitors.

With COC1CC(C)(C)N(O)C(C)(C)C1 [Inhibitor 3] the “Inhibition Time” value [1] was 305 min, the “Inhibition Time” value [2] was greater than 300 min and the “Inhibition Time” value [3] was greater than 300 min.
In the case of CC1(C)CCCC(C)(C)N1O [Inhibitor 5], the “Inhibition Time” value [1] is reported as 60 min, the “Inhibition Time” value [2] is reported as 385 min and the “Inhibition Time” value [3] is reported as 180 min.
With CC1(C)CC2(CC(C)(C)N1[O])OCCCO2 [Example 1, 1,5-dioxa-9-aza-8,8,10,10-tetramethylspiro[5,5]undec-9-yloxy] the “Inhibition Time” value [1] was 40 min, the “Inhibition Time” value [2] was 205 min and the “Inhibition Time” value [3] was 165 min.
With CC1(C)CC2(CC(C)(C)N1[O])OCCCO2 [Example 2, 1,5-dioxa-9-aza-8,8,10,10 tetramethylspiro[5,5]undec-9-yloxy] the “Inhibition Time” value [1] was 60 min, the “Inhibition Time” value [2] was 145 min and the “Inhibition Time” value [3] was 166 min.
